Laboratory results from publication PMC3773576 (Cell Research, 2013).

How the values were obtained:
[1] = biological target: T1, KCNQ2 potassium channel (Kv7.2) (Homo sapiens, UniProt O43526); test: whole-cell voltage clamp in CHO cells; type: cell-based
[2] = biological target: T1, KCNQ2 potassium channel (Kv7.2); test: whole-cell voltage clamp in CHO cells, with VSD mutagenesis; type: cell-based

T1 sequence (O43526 whole entry): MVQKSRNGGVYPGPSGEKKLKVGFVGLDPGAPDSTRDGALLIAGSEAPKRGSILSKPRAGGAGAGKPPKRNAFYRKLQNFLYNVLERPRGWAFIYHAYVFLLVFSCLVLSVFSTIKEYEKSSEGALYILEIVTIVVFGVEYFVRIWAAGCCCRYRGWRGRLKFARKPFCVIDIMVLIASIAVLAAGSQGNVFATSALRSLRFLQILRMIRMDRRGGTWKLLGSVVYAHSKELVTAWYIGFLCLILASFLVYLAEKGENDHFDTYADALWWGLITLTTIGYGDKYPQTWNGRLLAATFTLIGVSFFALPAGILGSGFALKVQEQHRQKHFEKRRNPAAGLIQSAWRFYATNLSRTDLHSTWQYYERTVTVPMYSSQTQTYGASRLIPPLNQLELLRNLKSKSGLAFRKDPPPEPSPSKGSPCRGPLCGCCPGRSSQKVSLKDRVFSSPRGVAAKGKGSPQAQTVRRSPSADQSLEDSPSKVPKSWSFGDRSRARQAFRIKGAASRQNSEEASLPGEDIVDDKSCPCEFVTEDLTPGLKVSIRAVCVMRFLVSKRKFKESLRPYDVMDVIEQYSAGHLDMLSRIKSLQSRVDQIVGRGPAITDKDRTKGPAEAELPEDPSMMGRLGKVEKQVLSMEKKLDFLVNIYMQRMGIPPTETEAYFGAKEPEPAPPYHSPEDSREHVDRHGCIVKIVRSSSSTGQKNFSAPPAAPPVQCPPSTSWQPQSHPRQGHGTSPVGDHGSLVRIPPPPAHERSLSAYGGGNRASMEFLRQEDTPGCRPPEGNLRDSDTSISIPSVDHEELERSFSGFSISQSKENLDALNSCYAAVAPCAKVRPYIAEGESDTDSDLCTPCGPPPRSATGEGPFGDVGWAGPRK

Row | Compound | whole-cell voltage clamp in CHO cells [1] | EC50 [2] [µM]
1 | O=C(Nc1ccc(Cl)nc1)c1ccccc1 [YGP1, N-(6-Chloropyridin-3-yl)benzamide] | Electrophysiological recording showed that YGP1 still exhibited potentiation activity on KCNQ2 as ztz240 did | –
2 | O=C(Nc1ccc(Cl)nc1)c1ccc(F)cc1 [ztz240] | – | 2.81
